Tested on: ATXN3Q81.Luc fusion protein
Assay: Confirmation dose-response, ATXN3 levels by immunoblotting
Type: cell-based, human
Conditions: 293.ATXN3Q81Luc cells
Source text: Full-length ATXN3 (Accession number ABS29269) carrying either a normal or an expanded polyQ tract (Q26 or Q81) was subcloned in the vector pcDNA3.1 FLAG.firefly Luciferase. The mammalian expression plasmids pcDNA.FLAG.ATXN3Q26.Luc and pcDNA.FLAG.ATXN3Q81.Luc were confirmed by sequencing and shown to express N-terminal FLAG-tagged ATXN3Q26 or ATXN3Q81 fused with firefly Luciferase (Luc), respectively. These neomycin-resistant plasmids were transfected into HEK293 cells using Lipofectamine LTX (Invitrogen) during four hours, after which medium was replaced by growth medium (DMEM/10% fetal bovine serum (FBS)/1% penicillin/streptomycin (PS)). […] After one month of passage in selection medium, stably transfected clones for each cell line (293.ATXN3Q26Luc and 293.ATXN3Q81Luc) were pooled and frozen in liquid nitrogen. Stably transfected cell lines were maintained in selection medium except during treatment with specific compounds that were diluted in growth medium.
Protein lysates from cell cultures, mouse brain slices or mouse brains were obtained by lysis in RIPA buffer containing protease inhibitors (Complete, Roche Diagnostics), followed by sonication and centrifugation. The supernatants (soluble protein fractions) were collected, total protein concentration was determined using the BCA method (Pierce) and then stored at −80° C. Total proteins (50 μg from cell and slice cultures or 75 μg from brain regions of mice) were resolved in 10% SDS-PAGE gels, and corresponding PVDF membranes were incubated overnight at 4° C. with primary antibodies: mouse anti-ATXN3 (1H9) (1:2000; MAB5360, Millipore), goat anti-Luciferase (1:500; G7451, Promega), mouse anti-FLAG (M5) (1:500; IB13091, Sigma), rabbit anti-LC3 (1:500; PM036, MBL International Corporation), mouse anti-HSP90β (1:1000; ADI-SPA842, Enzo Life Sciences), rabbit anti-HSP90α (1:1000; ab2928, Abcam), mouse anti-HSP70 (1:500; SPA810, Enzo Life Sciences), rabbit anti-HSP40 (1:1000; #4868, Cell Signaling), rabbit anti-HSP25 (1:1000; ADI-SPA801, Enzo Life Sciences), rabbit anti-HSF1 (1:1000, ADI-SPA-901, Enzo Life Sciences), rabbit anti-ubiquitin (1:1000, Z 0458, Dako), rabbit anti-RAD23A (1:5000; TA307264, Origene), rabbit anti-RAD23B (1:2000; A302-306A, Bethyl Labs), rabbit anti-α-Tubulin (11H10) (1:10000; #2125, Cell Signaling), and mouse anti-GAPDH (1:1000; MAB374, Millipore). Pellets corresponding to insoluble protein fractions were resuspended in 100 μL of Laemmli buffer 2× and boiled for 10 min. Insoluble proteins were then quantified, and 100 μg were loaded in a filter trap assay apparatus and transferred to a nitrocellulose membrane (0.45 μm pore) that was incubated overnight with rabbit anti-MJD antibody (1:5000) at 4° C. Bound primary antibodies were visualized by incubation with a peroxidase-conjugated anti-mouse or anti-rabbit secondary antibody (1:10000; Jackson Immuno Research Laboratories) followed by treatment with the ECL-plus reagent (Western Lighting, PerkinElmer) and exposure to autoradiography films. Band intensity was quantified by densitometry using ImageJ.

O=C1CCc2ccc(OCCCCN3CCN(c4cccc(Cl)c4Cl)CC3)cc2N1 [aripiprazole]
levels of ATXN3Q81.Luc fusion protein: confirmed to decrease levels of ATXN3Q81.Luc fusion protein

Reference: patent publication US20190070174A1, “METHODS OF TREATING NEURODEGENERATIVE DISEASES” (priority 2016, published 2019)
